Earlier results as cited in PubChem BioAssay AID1259409 (Chemical Carcinogenesis Research Information System (CCRIS), 2018).

Test system: rodent chemically induced tumor inhibition, incidence and multiplicity
Experiment: CCRIS tumor inhibitor studies
Conditions: Route [Inhibitor]: ORAL, Promoter: NONE USED
From the text: The CCRIS database contains chemical records with carcinogenicity, mutagenicity, tumor promotion, and tumor inhibition test results. It was developed by the National Cancer Institute (NCI). Data are derived from studies cited in primary journals, current awareness tools, NCI reports, and other sources. Test results have been reviewed by experts in carcinogenesis and mutagenesis.
CCRIS provides historical information from the years 1985 - 2011. It is no longer updated.
This is an archive assay for CCRIS tumor inhibitor studies.

## CC1=C(/C=C/C(C)=C/C=C/C(C)=C\C(=O)O)C(C)(C)CCC1
Carcinogen: N-(4-(5-NITRO-2-FURYL)-2-THIAZOLYL)FORMAMIDE, 24554-26-5, Dose [Inhibitor]: 120 MG/KG DIET DAILY STARTING 1 WK AFTER COMPLETION OF CARCINOGEN TREATMENT AND CONTINUING UNTIL END OF STUDY (STUDY DUR, Species: RAT, Strain/Sex: F344/FEMALE, Target Tissue: Type of Lesion: URINARY BLADDER: PAPILLOMA, Dose [Carcinogen]: 2 G/KG DIET DAILY FOR 10 WK
  tumour outcome (control, treated, inhibition, significance): 10/100 (10%), 12/100 (12%), -20%, p 0.655
Carcinogen: N-(4-(5-NITRO-2-FURYL)-2-THIAZOLYL)FORMAMIDE, 24554-26-5, Dose [Inhibitor]: 240 MG/KG DIET DAILY STARTING 1 WK AFTER COMPLETION OF CARCINOGEN TREATMENT AND CONTINUING UNTIL END OF STUDY (STUDY DUR, Species: RAT, Strain/Sex: F344/FEMALE, Target Tissue: Type of Lesion: URINARY BLADDER: CARCINOMA, Dose [Carcinogen]: 2 G/KG DIET DAILY FOR 10 WK
  tumour outcome (control, treated, inhibition, significance): 36/100 (36%), 47/100 (47%), -31%, p 0.024
Carcinogen: N-(4-(5-NITRO-2-FURYL)-2-THIAZOLYL)FORMAMIDE, 24554-26-5, Dose [Inhibitor]: 240 MG/KG DIET DAILY STARTING 1 WK AFTER COMPLETION OF CARCINOGEN TREATMENT AND CONTINUING UNTIL END OF STUDY (STUDY DUR, Species: RAT, Strain/Sex: F344/FEMALE, Target Tissue: Type of Lesion: URINARY BLADDER: PAPILLOMA, Dose [Carcinogen]: 2 G/KG DIET DAILY FOR 10 WK
  tumour outcome (control, treated, inhibition, significance): 10/100 (10%), 7/100 (7%), 30%, p 0.446
Carcinogen: N-BUTYL-N-(4-HYDROXYBUTYL)NITROSAMINE, 3817-11-6, Dose [Inhibitor]: 0.8 MMOL/KG DIET DAILY FOR 19 WK STARTING 7 D AFTER FINAL CARCINOGEN DOSE (STUDY DURATION: 6 MO), Species: RAT, Strain/Sex: F344/FEMALE, Target Tissue: Type of Lesion: URINARY BLADDER: TRANSITIONAL CELL CARCINOMA, Dose [Carcinogen]: 150 MG 2/WK FOR 6 WK
  tumour outcome (control, treated, inhibition, significance): 28/80 (35%), 7/40 (18%), 49%, p<0.05
Carcinogen: N-BUTYL-N-(4-HYDROXYBUTYL)NITROSAMINE, 3817-11-6, Dose [Inhibitor]: 0.8 MMOL/KG DIET DAILY FOR 19 WK STARTING 7 D AFTER FINAL CARCINOGEN DOSE (STUDY DURATION: 6 MO), Species: RAT, Strain/Sex: F344/MALE, Target Tissue: Type of Lesion: URINARY BLADDER: TRANSITIONAL CELL CARCINOMA, Dose [Carcinogen]: 200 MG 2/WK FOR 8 WK
  tumour outcome (control, treated, inhibition, significance): 55/60 (92%), 24/30 (80%), 13%, not significant
Carcinogen: N-BUTYL-N-(4-HYDROXYBUTYL)NITROSAMINE, 3817-11-6, Dose [Inhibitor]: 150 MG/G DIET DAILY STARTING 7 D AFTER THE LAST CARCINOGEN DOSE AND CONTINUING THROUGH THE END OF THE STUDY (STUDY DURAT, Species: MOUSE, Strain/Sex: B6D2F1/FEMALE, MALE, Target Tissue: Type of Lesion: URINARY BLADDER: TRANSITIONAL CELL CARCINOMA, Dose [Carcinogen]: 10 MG 2/WK FOR 9 WK
  tumour outcome (control, treated, inhibition, significance): 23/54 (43%), 19/55 (35%), 19%, not significant
Carcinogen: N-BUTYL-N-(4-HYDROXYBUTYL)NITROSAMINE, 3817-11-6, Dose [Inhibitor]: 150 MG/KG DIET DAILY STARTING 7 D AFTER THE LAST CARCINOGEN DOSE AND CONTINUING THROUGH THE END OF THE STUDY (STUDY DURA, Species: MOUSE, Strain/Sex: B6D2F1/FEMALE, MALE, Target Tissue: Type of Lesion: URINARY BLADDER: TRANSITIONAL CELL CARCINOMA, Dose [Carcinogen]: 5 MG 2/WK FOR 9 WK
  tumour outcome (control, treated, inhibition, significance): 29/71 (41%), 19/69 (28%), 32%, not significant
Carcinogen: N-BUTYL-N-(4-HYDROXYBUTYL)NITROSAMINE, 3817-11-6, Dose [Inhibitor]: 200 MG/G DIET DAILY STARTING 7 D AFTER THE LAST CARCINOGEN DOSE AND CONTINUING THROUGH THE END OF THE STUDY (STUDY DURAT, Species: MOUSE, Strain/Sex: B6D2F1/FEMALE, MALE, Target Tissue: Type of Lesion: URINARY BLADDER: TRANSITIONAL CELL CARCINOMA, Dose [Carcinogen]: 5 MG 2/WK FOR 9 WK
  tumour outcome (control, treated, inhibition, significance): 29/71 (41%), 17/71 (24%), 41%, p<0.05
Carcinogen: N-BUTYL-N-(4-HYDROXYBUTYL)NITROSAMINE, 3817-11-6, Dose [Inhibitor]: 200 MG/G DIET DAILY STARTING 7 D AFTER THE LAST CARCINOGEN DOSE AND CONTINUING THROUGH THE END OF THE STUDY (STUDY DURAT, Species: MOUSE, Strain/Sex: B6D2F1/FEMALE, MALE, Target Tissue: Type of Lesion: URINARY BLADDER: TRANSITIONAL CELL CARCINOMA, Dose [Carcinogen]: 10 MG 2/WK FOR 9 WK
  tumour outcome (control, treated, inhibition, significance): 23/54 (43%), 12/54 (22%), 49%, p<0.05
Carcinogen: N-BUTYL-N-(4-HYDROXYBUTYL)NITROSAMINE, 3817-11-6, Dose [Inhibitor]: 200 MG/KG DIET DAILY STARTING 7 D AFTER LAST CARCINOGEN DOSE AND CONTINUING THROUGH THE END OF STUDY (STUDY DURATION: 6, Species: MOUSE, Strain/Sex: C57BL/MALE, Target Tissue: Type of Lesion: URINARY BLADDER: NEOPLASM, Dose [Carcinogen]: 7.5 MG 2/WK FOR 6 WK
  tumour outcome (control, treated, inhibition, significance): 9/24 (38%), 1/19 (5%), 87%, p<0.05
